Where two headings read alike, the source gives them in different places. Where a SMILES comes first, the peptide text is derived from it. Bridges are numbered along the chain shown (N, C = ends). [ ]: non-standard residue; d: D form. The star is where a group is joined. hPhe(3-Cl-4-CF3) = N[C@@H](CCc1ccc(C(F)(F)F)c(Cl)c1)C(=O)O; NEtPhe(4-CF3) = CCN[C@@H](Cc1ccc(C(F)(F)F)cc1)C(=O)O; NMeGly(cPent) = CN[C@H](C(=O)O)C1CCCC1; NMeD = CN[C@@H](CC(=O)O)C(=O)O; NMeL = CN[C@@H](CC(C)C)C(=O)O; Morpholide = C1CN(*)CCO1; Aib = CC(C)(N)C(=O)O; Sar = CNCC(=O)O
Tests used:
[1] = molecular target: GDP-bound KRAS wild-type protein (Homo sapiens, UniProt P01116); test: Binding to KRAS by surface plasmon resonance (SPR), dissociation constant KD; settings: 1:1 binding model
Summary of the method: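 Single-cycle kinetics on GDP-loaded biotin-Avi RAS captured to ~100–300 RU; 75 s ascending injections, 100 µL/min, 30°C. HBS pH 7.4 + 10 mM MgCl2/10 µM GDP/4% DMSO. 1:1 fit, KD.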

[2] = molecular target: GDP-bound NRAS wild-type protein (Homo sapiens, UniProt P01111); test: Binding to NRAS by surface plasmon resonance (SPR), KD and KD ratio to KRAS
Summary of the method: (§1)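 Measured at 30°C: SPR with GDP-loaded, E. coli-expressed biotin-Avi RAS captured (~100–300 RU), ascending 75 s compound injections, HBS pH 7.4 with GDP, MgCl2, 4% DMSO. KD from 1:1 fit.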

[3] = molecular target: HRAS wild-type protein (Homo sapiens, UniProt P01112); test: Binding to HRAS by surface plasmon resonance (SPR), KD and KD ratio to KRAS
Summary of the method: as §1

[4] = system: human lung cancer strain NCI-H441; format: cell-based
Summary of the method: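 Signal came from […] measured per well once the reagent was added. Beforehand, cells were cultured at 37°C and 5% carbon dioxide on a compound series serially diluted in dimethyl sulfoxide.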

[5] = ratio of KD for GDP-bound NRAS wild-type protein to KD for KRAS
[6] = ratio of KD for HRAS wild-type protein to KD for KRAS
[7] = ratio of the KD value with respect to GDP-bound NRAS wild-type protein to the KD value with respect to KRAS
[8] = ratio of the KD value with respect to HRAS wild-type protein to the KD value with respect to KRAS

Chain of GDP-bound NRAS wild-type protein (P01111 whole entry): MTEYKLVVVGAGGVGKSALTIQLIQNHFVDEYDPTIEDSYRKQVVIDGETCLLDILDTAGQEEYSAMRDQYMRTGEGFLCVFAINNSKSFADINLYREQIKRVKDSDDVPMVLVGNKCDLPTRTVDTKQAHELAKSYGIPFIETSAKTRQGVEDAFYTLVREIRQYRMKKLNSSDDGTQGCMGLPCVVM
Chain of GDP-bound KRAS wild-type protein (P01116 1-188 isoform P01116-2): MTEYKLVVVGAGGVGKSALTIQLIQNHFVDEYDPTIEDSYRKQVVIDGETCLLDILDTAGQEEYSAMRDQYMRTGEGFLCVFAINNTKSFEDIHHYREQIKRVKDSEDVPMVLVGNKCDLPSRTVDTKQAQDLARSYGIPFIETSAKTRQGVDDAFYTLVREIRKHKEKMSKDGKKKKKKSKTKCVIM
Chain of HRAS wild-type protein (P01112 whole entry): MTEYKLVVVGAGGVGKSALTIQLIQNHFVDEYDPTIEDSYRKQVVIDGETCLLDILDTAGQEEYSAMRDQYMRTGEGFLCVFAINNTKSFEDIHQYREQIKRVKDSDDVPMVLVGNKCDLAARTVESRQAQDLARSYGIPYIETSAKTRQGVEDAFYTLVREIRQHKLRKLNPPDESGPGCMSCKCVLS

| Compound | Kd ([1]; Single Cycle Kinetics) [nM] | IC50 [4] [nM] | NRAS /KRAS ([2]; ratio of KD value for GDP-bound NRAS wild-type protein to KD value for KRAS (SPR)) | HRAS /KRAS ([3]; ratio of KD value for HRAS wild-type protein to KD value for KRAS (SPR)) | Kd [1] [nM] | NRAS /KRAS [2, 5] | HRAS /KRAS [3, 6] | IC50 ([4]; NCI-H441 cells, 4 days, CellTiter-Glo, read-out: NCl-H441 IC50) [nM] | NRAS /KRAS [2, 7] | HRAS /KRAS [3, 8] |
| --- | --- | --- | --- | --- | --- | --- | --- | --- | --- | --- |
| CC[C@H](C)[C@@H]1NC(=O)[C@H](CC(C)C)N(C)C(=O)C[C@@H](C(=O)N2CCOCC2)N(C)C(=O)[C@H](C2CCCC2)N(C)C(=O)C(C)(C)NC(=O)[C@@H]2CCCN2C(=O)[C@H](CCc2ccc(C(F)(F)F)c(Cl)c2)NC(=O)CN(C)C(=O)[C@H](Cc2ccc(C(F)(F)F)cc2)N(CC)C(=O)CN(C)C(=O)CN(C)C1=O [PP0235] ([NMeL]I[Sar][Sar][NEtPhe(4-CF3)][Sar][hPhe(3-Cl-4-CF3)]P[Aib][NMeGly(cPent)][NMeD]-Morpholide; lactam N-11) |  | 4.5 |  |  | 0.15 | B (a compound having 3 or more and less than 10 is denoted as B) | C (A compound having a KD ratio of 0.1 or more and less than 3 is denoted as C) |  |  |  |
| CCC(CC)[C@H]1C(=O)N(C)[C@H](C(=O)N2CCCCC2)CC(=O)N(C)[C@H]2CCC/C=C/c3ccc(cc3)C[C@@H](C(=O)N(C)CC(=O)N[C@@H](CCc3ccc(Cl)c(Cl)c3)C(=O)N3CCC[C@H]3C(=O)NC3(CC(C)(C)C3)C(=O)N1C)N1CC/C=C\C[C@@H](C1=O)N(C)C(=O)CN(C)C(=O)[C@H]([C@@H](C)CC)NC2=O [PP3055] |  |  |  |  | 1 | AA (a compound having 20 or more is denoted as AA) | A (a compound having 10 or more and less than 20 is denoted as A) | 69.2 |  |  |
| CCC[C@H]1C(=O)N[C@@H](C2CCCC2)C(=O)N(C)CC(=O)N(C)[C@H]2C/C=C\CCN(C2=O)[C@@H](Cc2ccc(C)cc2)C(=O)N(C)CC(=O)N[C@@H](CCc2ccc(C(F)(F)F)c(Cl)c2)C(=O)N2C[C@H](OCC)C[C@H]2C(=O)NC2(CC(C)(C)C2)C(=O)N(C)[C@@H](CC(F)(F)F)C(=O)N(C)[C@H](C(=O)N(C)C)CC(=O)N1C [PP2192] | 3.3 | 91.9 |  |  |  |  |  |  | A (a compound having 10 or more and less than 20 is denoted as A) | A (a compound having 10 or more and less than 20 is denoted as A) |

Further lines, with some results ahead:

| Kd ([1]; Single Cycle Kinetics) [nM] | IC50 [4] [nM] | Compound | NRAS /KRAS ([2]; ratio of KD value for GDP-bound NRAS wild-type protein to KD value for KRAS (SPR)) | HRAS /KRAS ([3]; ratio of KD value for HRAS wild-type protein to KD value for KRAS (SPR)) | Kd [1] [nM] | NRAS /KRAS [2, 5] | HRAS /KRAS [3, 6] | IC50 ([4]; NCI-H441 cells, 4 days, CellTiter-Glo, read-out: NCl-H441 IC50) [nM] | NRAS /KRAS [2, 7] | HRAS /KRAS [3, 8] |
| --- | --- | --- | --- | --- | --- | --- | --- | --- | --- | --- |
| 0.15 | 28.1 | CC[C@H](C)[C@@H]1NC(=O)[C@H](CC2CCCC2)N(C)C(=O)C[C@@H](C(=O)N(C)C)N(C)C(=O)[C@H](C2CCCC2)N(C)C(=O)C2(CCC2)NC(=O)[C@@H]2C[C@@H](C(F)(F)F)CN2C(=O)[C@H](CCc2cc(F)c(C(F)(F)F)c(F)c2)NC(=O)CN(C)C(=O)[C@H](Cc2ccc(F)cc2)N2CC/C=C\C[C@@H](C2=O)N(C)C(=O)CN(C)C1=O [PP1508] | A (a compound having 10 or more and less than 20 is denoted as A) | A (a compound having 10 or more and less than 20 is denoted as A) |  |  |  |  |  |  |
| 0.13 | 6.2 | CCC[C@H]1C(=O)N[C@@H]([C@@H](C)CC)C(=O)N(C)CC(=O)N(C)[C@H]2C/C=C\CCN(C2=O)[C@@H](Cc2ccc(C)cc2)C(=O)N(C)CC(=O)N[C@@H](CCc2ccc(C(F)(F)F)c(Cl)c2)C(=O)N2C[C@H](C)C[C@H]2C(=O)NC2(CC(C)(C)C2)C(=O)N(C)[C@@H](C2CCCC2)C(=O)N(C)[C@H](C(=O)N(C)C)CC(=O)N1C [PP2210] |  |  |  |  |  |  | A (a compound having 10 or more and less than 20 is denoted as A) | B (a compound having 3 or more and less than 10 is denoted as B) |
| 0.4 | 8.2 | CCC[C@H]1C(=O)N[C@@H]([C@@H](C)CC)C(=O)N(C2CC2)CC(=O)N(C)[C@H]2C/C=C\CCN(C2=O)[C@@H](Cc2ccc(C)cc2)C(=O)N(C)CC(=O)N[C@@H](CCc2ccc(C(F)(F)F)c(OC)c2)C(=O)N2C[C@H](OCC)C[C@H]2C(=O)N(C)C2(CCC2)C(=O)N(C)[C@@H](C(CC)CC)C(=O)N(C)[C@H](C(=O)N(C)C)CC(=O)N1C [PP2325] |  |  |  |  |  |  | A (a compound having 10 or more and less than 20 is denoted as A) | A (a compound having 10 or more and less than 20 is denoted as A) |

Reference: EP4603105A1, “PHARMACEUTICAL COMPOSITION CONTAINING CYCLIC COMPOUND HAVING SELECTIVE KRAS INHIBITORY EFFECT AGAINST HRAS AND NRAS” (CHUGAI SEIYAKU KABUSHIKI KAISHA, priority 2022, dated 2024)
